This passage reports IC50 results from ChEMBL document CHEMBL1143476, “Synthesis and biological evaluation of 1,3-diphenylprop-2-yn-1-ones as dual inhibitors of cyclooxygenases and lipoxygenases” (Bioorg Med Chem Lett, 2005).

Structures are written as SMILES. A value given as a limit tells only on which side of the number the result lay.

Test [1] concerns the target T1, Prostaglandin G/H synthase 1 (Ovis aries, UniProt P05979).
T1 sequence (P05979 whole entry): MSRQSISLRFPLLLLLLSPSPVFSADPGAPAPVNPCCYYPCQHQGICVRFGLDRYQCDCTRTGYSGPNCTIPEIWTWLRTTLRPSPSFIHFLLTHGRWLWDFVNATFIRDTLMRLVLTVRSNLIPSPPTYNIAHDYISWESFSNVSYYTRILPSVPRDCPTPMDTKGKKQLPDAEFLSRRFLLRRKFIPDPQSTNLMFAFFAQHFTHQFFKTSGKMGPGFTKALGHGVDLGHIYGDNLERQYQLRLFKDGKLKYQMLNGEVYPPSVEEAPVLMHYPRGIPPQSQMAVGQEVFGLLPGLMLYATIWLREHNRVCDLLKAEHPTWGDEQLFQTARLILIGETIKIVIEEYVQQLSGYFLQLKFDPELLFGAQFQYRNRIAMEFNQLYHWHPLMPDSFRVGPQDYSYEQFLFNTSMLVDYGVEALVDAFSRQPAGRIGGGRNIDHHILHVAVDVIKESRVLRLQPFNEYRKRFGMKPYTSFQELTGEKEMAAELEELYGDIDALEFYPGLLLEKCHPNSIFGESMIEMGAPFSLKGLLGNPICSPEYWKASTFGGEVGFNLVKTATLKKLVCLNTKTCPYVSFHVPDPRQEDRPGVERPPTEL
Description: In vitro inhibitory activity against ovine cyclooxygenase 1.

Test [2] addresses T2, Seed linoleate 13S-lipoxygenase-1 (Glycine max, UniProt P08170).
T2 sequence (P08170 whole entry): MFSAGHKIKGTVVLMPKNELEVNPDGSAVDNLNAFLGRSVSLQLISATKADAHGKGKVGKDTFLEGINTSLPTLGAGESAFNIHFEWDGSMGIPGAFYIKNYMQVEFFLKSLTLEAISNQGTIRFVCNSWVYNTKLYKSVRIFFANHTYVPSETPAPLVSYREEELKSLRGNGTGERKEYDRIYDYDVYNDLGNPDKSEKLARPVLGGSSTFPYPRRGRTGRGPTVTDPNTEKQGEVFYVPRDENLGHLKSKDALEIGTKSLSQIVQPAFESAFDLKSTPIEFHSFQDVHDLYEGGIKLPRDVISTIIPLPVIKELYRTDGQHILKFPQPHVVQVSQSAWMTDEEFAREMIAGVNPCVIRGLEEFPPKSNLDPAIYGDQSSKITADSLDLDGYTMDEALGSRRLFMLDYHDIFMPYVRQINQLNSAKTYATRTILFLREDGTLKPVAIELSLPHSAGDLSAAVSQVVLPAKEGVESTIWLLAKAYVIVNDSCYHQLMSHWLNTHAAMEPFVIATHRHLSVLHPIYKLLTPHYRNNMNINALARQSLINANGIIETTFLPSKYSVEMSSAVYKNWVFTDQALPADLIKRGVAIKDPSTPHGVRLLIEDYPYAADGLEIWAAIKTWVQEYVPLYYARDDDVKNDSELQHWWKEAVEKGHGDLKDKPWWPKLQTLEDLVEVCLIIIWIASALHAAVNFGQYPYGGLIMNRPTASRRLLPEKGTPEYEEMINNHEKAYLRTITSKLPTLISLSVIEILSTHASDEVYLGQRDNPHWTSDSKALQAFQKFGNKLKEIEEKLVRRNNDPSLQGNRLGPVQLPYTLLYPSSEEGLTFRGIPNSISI
Description: In vitro inhibitory activity against 5-lipoxygenase obtained from potato

The target in test [3] is T2, Seed linoleate 13S-lipoxygenase-1. The source holds these as a separate data set.
Description: In vitro inhibitory activity against 15-lipoxygenase obtained from soybean

As for `COc1cccc(C(=O)C#Cc2ccc(S(C)(=O)=O)cc2)c1`, the IC50 in test [1] was more than 100 µM; in test [2], 9 µM; in test [3], more than 10 µM.

With `COc1ccc(C(=O)C#Cc2ccc(S(C)(=O)=O)cc2)cc1O`, the concentration for half-maximal inhibition (IC50) in test [1] was 1 µM; in test [2], more than 10 µM; in test [3], 0.3 µM.

In turn, `O=c1cc(-c2ccc(O)c(O)c2)oc2cc(O)cc(O)c12` [LUTEOLIN] showed a half-maximal inhibitory concentration (IC50) in test [3] of 3.2 µM.

On to `CS(=O)(=O)c1ccc(C#CC(=O)c2ccccc2)cc1`, for which the results for the IC50 in test [1] and in test [3] were 1 µM and more than 10 µM, respectively.

On to `CS(=O)(=O)c1ccc(C#CC(=O)c2ccc(O)cc2)cc1`, for which the IC50 is 3.5 µM in test [1], 0.3 µM in test [2] and 0.32 µM in test [3].

Consider `CS(=O)(=O)c1ccc(C#CC(=O)c2ccc(F)cc2)cc1`, for which the values for the IC50 in test [1], in test [2] and in test [3] were 30 µM, more than 10 µM and 1 µM, respectively.

As for `Cc1ccc(C(=O)C#Cc2ccc(S(C)(=O)=O)cc2)cc1`, the IC50 in test [1] is more than 100 µM; in test [2] it was more than 10 µM; in test [3], more than 10 µM.

In test [1], `CS(=O)(=O)c1ccc(C#CC(=O)c2ccc(C#N)cc2)cc1` gave a half-inhibitory concentration (IC50) of 31.5 µM.

Take `CS(=O)(=O)c1ccc(C#CC(=O)c2ccc(C(F)(F)F)cc2)cc1`: the half-maximal inhibitory concentration (IC50) in test [1] is 3.1 µM; in test [2] it was more than 10 µM; in test [3], more than 10 µM.

Take `COc1cc(C(=O)C#Cc2ccc(S(C)(=O)=O)cc2)ccc1O`: the half-inhibitory concentration (IC50) was 1.1 µM in test [1], more than 10 µM in test [2] and 0.1 µM in test [3].

As to `CS(=O)(=O)c1ccc(C#CC(=O)c2ccc(F)c(F)c2)cc1`, the values for the IC50 in test [1], in test [2] and in test [3] were 3.1 µM, 0.4 µM and 3.2 µM, respectively.

As to `COc1ccc(C(=O)C#Cc2ccc(S(C)(=O)=O)cc2)cc1`, the results for the IC50 in test [2] and in test [3] were more than 10 µM and 3.5 µM, respectively.

For the compound `COc1cc(C(=O)C#Cc2ccc(S(C)(=O)=O)cc2)cc(OC)c1OC`, the half-inhibitory concentration (IC50) was more than 100 µM in test [1], 7 µM in test [2] and more than 10 µM in test [3].

As to `CS(=O)(=O)c1ccc(C#CC(=O)c2cccc(O)c2)cc1`, the results for the IC50 in test [1], in test [2] and in test [3] were more than 100 µM, 0.3 µM and 0.5 µM, respectively.
